Here are results for two molecules from paper PMC10399197, “Insights into Enzymatic Catalysis from Binding and Hydrolysis of Diadenosine Tetraphosphate by E. coli Adenylate Kinase” (Biochemistry, 2023).

The target of assay [1] is T1, adenylate kinase (AdK) (Escherichia coli, UniProt P69441). Description: X-ray crystal structure at […] Å (AdK cocrystallized with AP4A; two ADP molecules modeled). It counts as binding.
In assay [2] the target is T1, adenylate kinase (AdK). Kind of assay: Kd (Figure S1; ITC in the Supporting Information); also 1H-15N HSQC NMR, DEER EPR and […] NMR hydrolysis. Type of assay: binding. Details: wild-type AdK.

T1 sequence (P69441 whole entry): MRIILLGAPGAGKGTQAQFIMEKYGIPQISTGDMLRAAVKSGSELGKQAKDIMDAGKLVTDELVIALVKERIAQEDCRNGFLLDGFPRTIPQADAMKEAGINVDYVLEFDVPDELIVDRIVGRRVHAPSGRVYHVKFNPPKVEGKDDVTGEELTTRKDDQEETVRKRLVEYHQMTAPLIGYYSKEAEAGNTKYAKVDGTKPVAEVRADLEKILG

As for `Nc1ncnc2c1ncn2[C@@H]1O[C@H](COP(=O)(O)OP(=O)(O)O)[C@@H](O)[C@H]1O` [ADP], the “X-ray crystal structure at 1.49 Å (AdK cocrystallized with AP4A); two ADP molecul” value on adenylate kinase (AdK) [1] is listed as “the crystals trapped AdK in the closed conformation in complex with two ADP molecules”.
With `Nc1ncnc2c1ncn2[C@@H]1O[C@H](COP(=O)(O)OP(=O)(O)OP(=O)(O)OP(=O)(O)OC[C@H]2O[C@@H](n3cnc4c(N)ncnc43)[C@H](O)[C@@H]2O)[C@@H](O)[C@H]1O` [AP4A], at adenylate kinase (AdK) [2], binding was characterised by a dissociation constant (Kd) of 14 µM.
